From the kinase profiling compilation of Christmann-Franck et al. (2016)

Columns and labels:
Conditions in all cases: compound 10.0 µM
MAPK1 (human) = MAPK1 (human) (UniProt P28482)
MAP3K2 (human) = MAP3K2 (human) (UniProt Q9Y2U5)
TEC (human) = TEC (human) (UniProt P42680)
FGFR1 (human) = FGFR1 (human) (UniProt P11362)
PRKD1 (human) = PRKD1 (human) (UniProt Q15139)
PLK1 (human) = PLK1 (human) (UniProt P53350)
CHUK (human) = CHUK (human) (UniProt O15111)
STK39 (human) = STK39 (human) (UniProt Q9UEW8)
CDK4 CCND3 (human) = CDK4 CCND3 (human) (UniProt P11802+P30281)
[1] = tested on: LYN (human), P07948 [23-43 del]
RAF1 (human) = RAF1 (human) (UniProt P04049)
CDK2 CCNA2 (human) = CDK2 CCNA2 (human) (UniProt P24941+P20248)
MARK3 (human) = MARK3 (human) (UniProt P27448)
ADRBK2 (human) = ADRBK2 (human) (UniProt P35626)
PDGFRB (human) = PDGFRB (human) (UniProt P09619)
ACVR1 (human) = ACVR1 (human) (UniProt Q04771)
MAP3K14 (human) = MAP3K14 (human) (UniProt Q99558)
PHKG2 (human) = PHKG2 (human) (UniProt P15735)
TYRO3 (human) = TYRO3 (human) (UniProt Q06418)
CAMK1D (human) = CAMK1D (human) (UniProt Q8IU85)
DMPK (human) = DMPK (human) (UniProt Q09013)
ZAP70 (human) = ZAP70 (human) (UniProt P43403)
CDK3 CCNE1 (human) = CDK3 CCNE1 (human) (UniProt P24864+Q00526)
KIT (human) = KIT (human) (UniProt P10721)
CDC42BPA (human) = CDC42BPA (human) (UniProt Q5VT25)
PRKCB1 (human) = PRKCB1 (human) (UniProt P05771)
AKT3 (human) = AKT3 (human) (UniProt Q9Y243)
CDK7 CCNH MNAT1 (human) = CDK7 CCNH MNAT1 (human) (UniProt P50613+P51948+P51946)
TLK2 (human) = TLK2 (human) (UniProt Q86UE8)
CAMK2A (human) = CAMK2A (human) (UniProt Q9UQM7)
DYRK1A (human) = DYRK1A (human) (UniProt Q13627)
DCLK2 (human) = DCLK2 (human) (UniProt Q8N568)
RPS6KA3 KD1 KD2 (human) = RPS6KA3 KD1 KD2 (human) (UniProt P51812)
MLTK (human) = MLTK (human) (UniProt Q9NYL2)
PAK1 (human) = PAK1 (human) (UniProt Q13153)
ITK (human) = ITK (human) (UniProt Q08881)
SGK1 (human) = SGK1 (human) (UniProt O00141)
MAP4K5 (human) = MAP4K5 (human) (UniProt Q9Y4K4)
MAP3K8 (human) = MAP3K8 (human) (UniProt P41279)
ERBB4 (human) = ERBB4 (human) (UniProt Q15303)
MAP4K2 (human) = MAP4K2 (human) (UniProt Q12851)
FLT1 (human) = FLT1 (human) (UniProt P17948)
RPS6KB1 (human) = RPS6KB1 (human) (UniProt P23443)

Chain of TEC (human) (P42680 whole entry, looked up): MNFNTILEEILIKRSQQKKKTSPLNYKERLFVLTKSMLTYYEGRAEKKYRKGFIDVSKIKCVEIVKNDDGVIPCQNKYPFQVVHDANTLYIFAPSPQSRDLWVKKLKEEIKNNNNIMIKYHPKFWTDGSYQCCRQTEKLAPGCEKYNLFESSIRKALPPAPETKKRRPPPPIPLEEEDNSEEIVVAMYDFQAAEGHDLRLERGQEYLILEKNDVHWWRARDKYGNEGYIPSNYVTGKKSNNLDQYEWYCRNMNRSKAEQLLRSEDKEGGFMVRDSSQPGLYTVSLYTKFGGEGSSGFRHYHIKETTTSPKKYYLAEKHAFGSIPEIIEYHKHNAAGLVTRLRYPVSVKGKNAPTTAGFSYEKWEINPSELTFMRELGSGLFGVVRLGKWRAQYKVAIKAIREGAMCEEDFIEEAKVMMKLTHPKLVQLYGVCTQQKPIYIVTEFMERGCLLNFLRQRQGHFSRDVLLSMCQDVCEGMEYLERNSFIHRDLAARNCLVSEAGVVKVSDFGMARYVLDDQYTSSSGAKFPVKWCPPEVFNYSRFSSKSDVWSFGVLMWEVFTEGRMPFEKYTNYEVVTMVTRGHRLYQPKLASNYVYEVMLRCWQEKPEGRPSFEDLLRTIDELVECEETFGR
Chain of DMPK (human) (Q09013 whole entry, looked up): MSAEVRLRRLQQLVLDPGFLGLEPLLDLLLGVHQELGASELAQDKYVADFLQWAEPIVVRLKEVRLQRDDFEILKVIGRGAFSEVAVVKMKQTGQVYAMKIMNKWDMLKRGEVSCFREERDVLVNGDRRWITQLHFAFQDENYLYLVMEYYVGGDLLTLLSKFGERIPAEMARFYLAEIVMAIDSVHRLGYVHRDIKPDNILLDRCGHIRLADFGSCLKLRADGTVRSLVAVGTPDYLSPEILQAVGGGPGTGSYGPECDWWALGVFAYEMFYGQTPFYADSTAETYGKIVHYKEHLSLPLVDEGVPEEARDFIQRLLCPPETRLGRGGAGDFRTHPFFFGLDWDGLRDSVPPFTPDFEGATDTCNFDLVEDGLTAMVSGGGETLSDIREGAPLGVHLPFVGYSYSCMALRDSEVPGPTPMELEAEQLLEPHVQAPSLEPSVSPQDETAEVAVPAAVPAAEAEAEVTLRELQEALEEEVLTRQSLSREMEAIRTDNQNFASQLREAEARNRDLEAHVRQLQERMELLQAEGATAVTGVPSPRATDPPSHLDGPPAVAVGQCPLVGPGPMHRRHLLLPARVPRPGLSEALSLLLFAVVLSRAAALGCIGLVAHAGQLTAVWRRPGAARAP
Chain of MAP3K2 (human) (Q9Y2U5 whole entry, looked up): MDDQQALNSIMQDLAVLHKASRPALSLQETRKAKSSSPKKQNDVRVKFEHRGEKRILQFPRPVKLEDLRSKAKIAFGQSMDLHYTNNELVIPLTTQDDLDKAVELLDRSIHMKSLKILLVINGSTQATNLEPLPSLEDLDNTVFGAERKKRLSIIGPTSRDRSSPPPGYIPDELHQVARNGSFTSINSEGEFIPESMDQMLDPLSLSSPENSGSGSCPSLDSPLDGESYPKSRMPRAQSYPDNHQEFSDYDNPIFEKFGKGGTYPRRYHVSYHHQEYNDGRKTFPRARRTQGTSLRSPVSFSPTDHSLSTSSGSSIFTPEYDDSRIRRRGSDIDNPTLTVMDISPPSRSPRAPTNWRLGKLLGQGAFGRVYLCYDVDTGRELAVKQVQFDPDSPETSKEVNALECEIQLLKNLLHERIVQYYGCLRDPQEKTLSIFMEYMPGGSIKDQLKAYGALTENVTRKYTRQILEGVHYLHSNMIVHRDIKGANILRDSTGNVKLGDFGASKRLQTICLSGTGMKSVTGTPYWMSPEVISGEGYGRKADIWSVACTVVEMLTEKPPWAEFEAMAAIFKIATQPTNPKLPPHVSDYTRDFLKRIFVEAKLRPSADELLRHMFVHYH
Chain of FGFR1 (human) (P11362 whole entry, looked up): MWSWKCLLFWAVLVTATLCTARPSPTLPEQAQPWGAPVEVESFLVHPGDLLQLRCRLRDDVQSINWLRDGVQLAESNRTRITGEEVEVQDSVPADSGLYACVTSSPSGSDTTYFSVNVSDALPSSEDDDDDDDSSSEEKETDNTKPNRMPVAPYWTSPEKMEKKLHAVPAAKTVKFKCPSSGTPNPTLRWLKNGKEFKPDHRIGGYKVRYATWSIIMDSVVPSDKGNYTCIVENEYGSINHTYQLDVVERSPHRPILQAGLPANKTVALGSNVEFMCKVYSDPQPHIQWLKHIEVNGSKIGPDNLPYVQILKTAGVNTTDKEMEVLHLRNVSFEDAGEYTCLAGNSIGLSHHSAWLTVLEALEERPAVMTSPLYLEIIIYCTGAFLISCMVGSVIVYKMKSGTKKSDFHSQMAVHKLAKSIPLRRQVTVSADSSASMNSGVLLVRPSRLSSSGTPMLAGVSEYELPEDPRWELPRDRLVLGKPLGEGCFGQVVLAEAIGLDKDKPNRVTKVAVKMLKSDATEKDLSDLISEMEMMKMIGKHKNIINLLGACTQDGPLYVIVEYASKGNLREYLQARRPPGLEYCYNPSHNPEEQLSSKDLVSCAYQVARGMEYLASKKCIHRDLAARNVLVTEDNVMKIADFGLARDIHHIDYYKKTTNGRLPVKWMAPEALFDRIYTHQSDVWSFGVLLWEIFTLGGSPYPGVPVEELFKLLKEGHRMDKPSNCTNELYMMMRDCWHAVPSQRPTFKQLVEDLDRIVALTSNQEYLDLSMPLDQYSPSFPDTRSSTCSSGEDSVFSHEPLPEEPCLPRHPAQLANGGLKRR
Chain of SGK1 (human) (O00141 whole entry, looked up): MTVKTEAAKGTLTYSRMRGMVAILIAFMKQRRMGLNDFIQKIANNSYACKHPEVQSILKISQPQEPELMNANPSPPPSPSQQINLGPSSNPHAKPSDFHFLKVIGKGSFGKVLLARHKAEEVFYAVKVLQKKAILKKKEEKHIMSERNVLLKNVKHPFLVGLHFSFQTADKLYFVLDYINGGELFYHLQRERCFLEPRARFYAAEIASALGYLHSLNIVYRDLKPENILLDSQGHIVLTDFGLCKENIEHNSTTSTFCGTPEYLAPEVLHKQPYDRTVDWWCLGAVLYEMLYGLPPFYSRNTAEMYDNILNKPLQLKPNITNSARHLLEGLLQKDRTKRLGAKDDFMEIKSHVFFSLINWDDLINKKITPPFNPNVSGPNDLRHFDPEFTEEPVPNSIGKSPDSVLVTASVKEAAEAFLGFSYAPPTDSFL
Chain of MAPK1 (human) (P28482 whole entry, looked up): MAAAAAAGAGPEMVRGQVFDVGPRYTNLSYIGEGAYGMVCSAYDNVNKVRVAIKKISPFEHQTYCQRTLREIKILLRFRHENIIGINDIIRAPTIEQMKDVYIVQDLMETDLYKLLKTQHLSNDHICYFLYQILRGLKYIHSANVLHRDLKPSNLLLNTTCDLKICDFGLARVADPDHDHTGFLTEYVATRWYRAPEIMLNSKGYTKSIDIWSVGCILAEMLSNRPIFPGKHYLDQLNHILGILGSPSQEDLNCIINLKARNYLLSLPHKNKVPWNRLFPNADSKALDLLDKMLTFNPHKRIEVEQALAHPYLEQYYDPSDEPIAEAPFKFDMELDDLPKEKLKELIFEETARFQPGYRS
Chain of ZAP70 (human) (P43403 whole entry, looked up): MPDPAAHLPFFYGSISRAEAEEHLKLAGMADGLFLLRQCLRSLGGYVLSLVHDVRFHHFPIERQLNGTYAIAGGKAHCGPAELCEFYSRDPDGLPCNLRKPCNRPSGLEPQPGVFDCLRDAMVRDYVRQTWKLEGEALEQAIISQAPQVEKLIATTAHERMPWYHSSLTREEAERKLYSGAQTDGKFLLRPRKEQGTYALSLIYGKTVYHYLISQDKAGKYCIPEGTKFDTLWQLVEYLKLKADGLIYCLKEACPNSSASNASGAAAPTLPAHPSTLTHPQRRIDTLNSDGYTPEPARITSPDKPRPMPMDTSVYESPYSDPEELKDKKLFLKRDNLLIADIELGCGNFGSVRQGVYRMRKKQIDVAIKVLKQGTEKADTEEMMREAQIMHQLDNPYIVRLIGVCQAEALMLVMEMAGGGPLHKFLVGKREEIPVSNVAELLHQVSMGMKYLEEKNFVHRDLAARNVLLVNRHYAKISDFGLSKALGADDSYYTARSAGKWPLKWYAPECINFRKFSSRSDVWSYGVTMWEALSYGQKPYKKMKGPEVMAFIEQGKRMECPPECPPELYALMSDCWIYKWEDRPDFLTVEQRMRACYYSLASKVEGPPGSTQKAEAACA
Chain of TLK2 (human) (Q86UE8 whole entry, looked up): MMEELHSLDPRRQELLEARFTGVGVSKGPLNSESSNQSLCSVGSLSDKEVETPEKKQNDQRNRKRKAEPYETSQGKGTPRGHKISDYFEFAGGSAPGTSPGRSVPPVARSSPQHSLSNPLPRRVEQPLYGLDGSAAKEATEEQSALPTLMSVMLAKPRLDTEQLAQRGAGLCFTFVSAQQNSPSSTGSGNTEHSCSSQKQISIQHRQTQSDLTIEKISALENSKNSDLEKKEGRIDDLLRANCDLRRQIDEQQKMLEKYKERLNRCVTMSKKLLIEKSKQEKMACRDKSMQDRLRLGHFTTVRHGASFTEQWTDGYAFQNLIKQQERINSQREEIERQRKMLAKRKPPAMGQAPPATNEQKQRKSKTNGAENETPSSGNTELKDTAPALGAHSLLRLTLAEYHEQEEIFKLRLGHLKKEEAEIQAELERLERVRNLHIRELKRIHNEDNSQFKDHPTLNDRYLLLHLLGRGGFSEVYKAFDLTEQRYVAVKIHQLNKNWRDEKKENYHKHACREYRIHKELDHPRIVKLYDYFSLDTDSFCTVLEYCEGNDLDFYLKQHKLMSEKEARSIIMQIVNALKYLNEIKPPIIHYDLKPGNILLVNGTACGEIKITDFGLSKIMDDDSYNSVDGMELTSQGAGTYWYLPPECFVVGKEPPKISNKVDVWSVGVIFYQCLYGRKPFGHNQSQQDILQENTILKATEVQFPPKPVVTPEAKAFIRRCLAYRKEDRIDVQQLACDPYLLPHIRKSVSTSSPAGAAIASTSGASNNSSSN

CC[C@H](C)n1cc(C)c2c(C(=O)NCc3c(C)cc(C)[nH]c3=O)cc(-c3ccc(N4CCNCC4)nc3)cc21
residual activity (MAPK1 (human)): 95% | residual activity (MAP3K2 (human)): 100% | residual activity (TEC (human)): 81.5% | residual activity (FGFR1 (human)): 84.5% | residual activity (PRKD1 (human)): 100% | residual activity (PLK1 (human)): 98.5% | residual activity (CHUK (human)): 93% | residual activity (STK39 (human)): 95.5% | residual activity (CDK4 CCND3 (human)): 104% | residual activity [1]: 92% | residual activity (RAF1 (human)): 97% | residual activity (CDK2 CCNA2 (human)): 97% | residual activity (MARK3 (human)): 110% | residual activity (ADRBK2 (human)): 105% | residual activity (PDGFRB (human)): 102% | residual activity (ACVR1 (human)): 92.5% | residual activity (MAP3K14 (human)): 99% | residual activity (PHKG2 (human)): 93.5% | residual activity (TYRO3 (human)): 94.5% | residual activity (CAMK1D (human)): 82% | residual activity (DMPK (human)): 100% | residual activity (ZAP70 (human)): 97.5% | residual activity (CDK3 CCNE1 (human)): 105% | residual activity (KIT (human)): 99% | residual activity (CDC42BPA (human)): 100% | residual activity (PRKCB1 (human)): 102% | residual activity (AKT3 (human)): 94% | residual activity (CDK7 CCNH MNAT1 (human)): 102% | residual activity (TLK2 (human)): 101% | residual activity (CAMK2A (human)): 104% | residual activity (DYRK1A (human)): 95% | residual activity (DCLK2 (human)): 104% | residual activity (RPS6KA3 KD1 KD2 (human)): 90.5% | residual activity (MLTK (human)): 96% | residual activity (PAK1 (human)): 106% | residual activity (ITK (human)): 89.5% | residual activity (SGK1 (human)): 99% | residual activity (MAP4K5 (human)): 102% | residual activity (MAP3K8 (human)): 95.5% | residual activity (ERBB4 (human)): 93.5% | residual activity (MAP4K2 (human)): 91.5% | residual activity (FLT1 (human)): 97.5% | residual activity (RPS6KB1 (human)): 97%
